Source: patent US20040097478A1, “Remedies for retina and choroid diseases containing steroids as the active ingredient” (SANTEN PHARMACEUTICAL O., LTD, priority 2001, published 2004)
Like-named read-outs stand apart in the source and are kept apart here.

Legend:
[1] = tested on: Thrombin-induced rat retinal vessel hyperpermeability models; assay: Retinal vessel permeability inhibition tests of betamethasone phosphate; assay type: in vivo; settings: administered with thrombin
Method: A one ml/kg mixed solution (7:1) of a 5% ketamine hydrochloride injection and a 2% xylazine hydrochloride injection was intramuscularly administered to rats to anesthetize them systemically. Then, a 0.5% tropicamide-0.5% phenylephrine hydrochloride ophthalmic solution was instilled into left eyes to cause mydriasis. Thrombin (500. U/ml, 2.5 μl) was injected into vitreous bodies (left eye) of rats of a drug administration group and a control group with a 33 G needle without injuring crystalline lenses and retinas while observing them with a microscope for operation. A vehicle (Dulbecco's modified phosphate buffer physiological saline) was administered to rats of a normal group instead of thrombin. […]
Forty-eight hours after administering thrombin intravitreously, the 0.5% tropicamide-0.5% phenylephrine hydrochloride ophthalmic solution was instilled into the eyes to cause mydriasis. […] About 40 minutes after administering fluorescein, blood was collected from hearts, and then an intraocular fluorescent pigment concentration was immediately measured with a fluorotron master. The collected blood was centrifuged at 15,000 rpm×5 minutes, then supernatant (plasma) was diluted 51 times with the phosphate buffer physiological saline, and a fluorescent pigment concentration in the plasma was measured with the fluorotron master. […]

[2] = tested on: Laser-induced rat choroidal neovascularization models; settings: for Neovascularization exhibition rate (%, average of eight eyes): fluorescein fundus angiography on seventh day; for Choroidal neovascularization inhibition rate (%): versus vehicle administration group
Method: (§1) A one ml/kg mixed solution (7:1) of a 5% ketamine hydrochloride injection and a 2% xylazine hydrochloride injection was administered intramuscularly to rats to anesthetize them systemically. A 0.5% tropicamide-0.5% phenylephrine hydrochloride ophthalmic solution was instilled into the eyes to cause mydriasis, and then photocoagulation was performed with a krypton laser photocoagulation apparatus. The photocoagulation was carried out in a posterior section of ocular fundus at eight spots per eye sparsely avoiding thick retinal vessels and focusing on the retinal depth (coagulation conditions: spot size: 100 μm, output: 100 mW, coagulation time: 0.1 sec). After the photocoagulation, the ocular fundus was photographed to confirm laser irradiation sites.
Triamcinolone was suspended in the phosphate buffers as a comparative group so that its concentrations were 0.2 mg/ml and 2 mg/ml, and each suspension was administered similarly. The phosphate buffer was administered similarly as a vehicle administration group.
(§2) On seventh day after the photocoagulation, 0.1 ml of 10% fluorescein was injected from carotid vein, and fluorescein fundus angiography was performed. In the fluorescein fundus angiography, a spot where fluorescence diapedesis was not observed was judged as negative, and a spot where fluorescence diapedesis was observed was judged as positive. Each neovascularization exhibition rate was obtained by calculating the ratio of a positive spot number to eight spots irradiated with the laser, and each choroidal neovascularization inhibition rate was calculated according to the following equation.
(§3) Choroidal neovascularization inhibition rate (%)=(Ao−Ax)/Ao×100
(§4) Ao: Neovascularization exhibition rate of vehicle administration group
(§5) Ax: Neovascularization exhibition rate of drug administration group

[3] = tested on: Dispase-induced rabbit PVR models; assay: Retinal detachment inhibition tests of betamethasone; assay type: in vivo; settings: 10 mg/eye subconjunctival immediately after dispase
Method: A 0.5% tropicamide-0.5% phenylephrine hydrochloride ophthalmic solution was instilled into eyes of rabbits to cause mydriasis, and a 1 ml/kg mixed solution (7:1) of a 5% ketamine hydrochloride injection and a 2% xylazine hydrochloride injection was administered intramuscularly to the rabbits to anesthetize them systemically. 0.4% oxybuprocaine was instilled into the eyes to anesthetize anterior segments of the eyes, and then 100 μl of a dispase solution prepared at a concentration of 0.05 U/100 μl with physiological saline was injected into vitreous bodies. Six weeks and ten weeks after injecting the dispase solution, PVR induced by dispase was confirmed by observing ocular fundus.
Betamethasone was dissolved in a phosphate buffer so that its concentration was 0.1 g/ml, and the solution was administered subconjunctivally in an amount of 100 μl immediately after injecting dispase. The phosphate buffer was administered similarly as a vehicle administration group.
The ocular fundus was observed 56 days after inducing by dispase, and PVR was judged by scores. Criteria of judgment are shown below. Scores of three or more were defined as exhibition of PVR, and pathogenesis rates of PVR (pathogenesis rates of retinal detachment) in respective groups were calculated according to the equation 2.
1: A vitreous membrane is observed.
2: Traction, vascular abnormality or engorgement of the retina is observed.
3: Topical retinal detachment is observed.
4: Wide retinal detachment is observed.
5: Total retinal detachment is observed.
Pathogenesis rate of PVR (%)=PVR exhibition eye number/test eye number×100

[4] = tested on: Laser-induced rat choroidal neovascularization models; assay: Choroidal neovascularization inhibition tests of hydrocortisone; assay type: in vivo; settings: for Neovascularization exhibition rate (%, average of eight eyes): administered once subconjunctivally immediately after laser irradiation; for Choroidal neovascularization inhibition rate (%): once subconjunctivally, versus vehicle administration group
Method: as §1, §2, §3, §4, §5
Hydrocortisone was dissolved in phosphate buffers so that its concentrations were 2 mg/ml and 20 mg/ml, and each solution was administered once subconjunctivally in an amount of 50 μl immediately after laser irradiation. The phosphate buffer was administered similarly as a vehicle administration group.
Evaluation was carried out by a method similar to the above-mentioned tests of betamethasone sodium phosphate.

[5] = 10 μg/eye/day subconjunctival for seven days after laser irradiation
[6] = 100 μg/eye/day subconjunctival for seven days after laser irradiation

C[C@H]1C[C@H]2[C@@H]3CCC4=CC(=O)C=C[C@]4(C)[C@@]3(F)[C@@H](O)C[C@]2(C)[C@@]1(O)C(=O)COP(=O)([O-])[O-].[Na+].[Na+] [Betamethasone sodium phosphate, betamethasone sodium phosphate] was tested, and the “Effect on hyperpermeability of retinal vessels due to thrombin (in words)” value [1] was “the hyperpermeability of retinal vessels due to thrombin is inhibited”, the “Neovascularization exhibition rate (%, average of eight eyes)” value [2, 5] was 34.4% and the “Neovascularization exhibition rate (%, average of eight eyes)” value [2, 6] was 11.1%.

With C[C@H]1C[C@H]2[C@@H]3CCC4=CC(=O)C=C[C@]4(C)[C@@]3(F)[C@@H](O)C[C@]2(C)[C@@]1(O)C(=O)CO [Betamethasone] the “Pathogenesis rate of PVR” value ([3]; after 6 weeks) was 45.5%, the “Pathogenesis rate of PVR” value ([3]; after 10 weeks) was 37.5% and the “Pathogenesis rate of PVR” value ([3]; after 10 weeks, listed as betamethasone) was 37.5%.

For C[C@]12CCC(=O)C=C1CC[C@@H]1[C@@H]2[C@@H](O)C[C@@]2(C)[C@H]1CC[C@]2(O)C(=O)CO [Hydrocortisone], the “Neovascularization exhibition rate (%, average of eight eyes)” value ([4]; 100 μg/eye/day) was 45.3%, the “Choroidal neovascularization inhibition rate (%)” value ([4]; 100 μg/eye/day) was 32.6% and the “Neovascularization exhibition rate (%, average of eight eyes)” value ([4]; 1000 μg/eye/day) was 19.6%. The “Choroidal neovascularization inhibition rate (%)” value ([4]; 1000 μg/eye/day) was 70.8% and the “Inhibitory effect on choroidal neovascularization (in words)” value ([4]; both dosages of 100 μg/eye/day and 1,000 μg/eye/day) was “has an inhibitory effect on choroidal neovascularization”.

With C[C@]12C=CC(=O)C=C1CC[C@H]1[C@@H]3C[C@@H](O)[C@](O)(C(=O)CO)[C@@]3(C)C[C@H](O)[C@@]12F [Triamcinolone] the “Neovascularization exhibition rate (%, average of eight eyes)” value [2, 5] was 46.9%, the “Choroidal neovascularization inhibition rate (%)” value ([2]; 10 μg/eye/day subconjunctival for seven days) was 13.1% and the “Neovascularization exhibition rate (%, average of eight eyes)” value [2, 6] was 22.3%. The “Choroidal neovascularization inhibition rate (%)” value ([2]; 100 μg/eye/day subconjunctival for seven days) was 58.8%.
